# Results from ChEMBL document CHEMBL3885881, “DrugMatrix”.
# Organism: Rattus norvegicus
# Assay: DrugMatrix - Regimen: Daily Repeat
# Format: toxicity, organism-based, Sprague-Dawley
# Set-up: regimen Daily Repeat, gender Male, age 6-8 weeks
# Settings: in vivo, sc, route subcutaneous, […]; for ABSOLUTE BASOPHIL / ABSOLUTE EOSINOPHIL / ABSOLUTE LYMPHOCYTE / ABSOLUTE MONOCYTE / ABSOLUTE SEGMENTED NEUTROPHIL / BASOPHIL / EOSINOPHIL / ERYTHROCYTE COUNT / HEMATOCRIT / HEMOGLOBIN / LEUKOCYTE COUNT / LYMPHOCYTE / MEAN CORPUSCULAR HEMOGLOBIN / MEAN CORPUSCULAR HEMOGLOBIN CONCENTRATION / MEAN CORPUSCULAR VOLUME / MONOCYTE / NEUTROPHIL / NUCLEATED RED BLOOD CELLS / PLATELET COUNT: tissue Blood; for ALANINE AMINOTRANSFERASE / ALBUMIN / ALKALINE PHOSPHATASE / ASPARTATE AMINOTRANSFERASE / BLOOD UREA NITROGEN / CARBON DIOXIDE / CHLORIDE / CHOLESTEROL / CREATINE PHOSPHOKINASE / CREATININE / GLUCOSE / LACTATE DEHYDROGENASE / LIPASE / PHOSPHORUS / POTASSIUM / SODIUM / TOTAL BILIRUBIN / TOTAL PROTEIN / URIC ACID: tissue Plasma
# [1] = 3 mg/kg, 72 h, dose level Low, time 3 day
# [2] = 3 mg/kg, 120 h, dose level Low, time 5 day
# [3] = 1500 mg/kg, 72 h, dose level High, time 3 day
# [4] = 1500 mg/kg, 120 h, dose level High, time 5 day
smiles,measurement,setting,value
Clc1ccc(CO/N=C(\Cn2ccnc2)c2ccc(Cl)cc2Cl)c(Cl)c1 [OXICONAZOLE],ABSOLUTE BASOPHIL,[1],0 CELLS/uL
same,ABSOLUTE EOSINOPHIL,[1],0 CELLS/uL
same,ABSOLUTE LYMPHOCYTE,[1],11885.67 CELLS/uL
same,ABSOLUTE MONOCYTE,[1],211.33 CELLS/uL
same,ABSOLUTE SEGMENTED NEUTROPHIL,[1],736.33 CELLS/uL
same,BASOPHIL,[1],0%
same,EOSINOPHIL,[1],0%
same,ERYTHROCYTE COUNT,[1],5.9 x10E6/uL
same,HEMATOCRIT,[1],37.23%
same,HEMOGLOBIN,[1],14.13 G/DL
same,LEUKOCYTE COUNT,[1],12.83 x10E3/uL
same,LYMPHOCYTE,[1],92.33%
same,MEAN CORPUSCULAR HEMOGLOBIN,[1],24 pg
same,MEAN CORPUSCULAR HEMOGLOBIN CONCENTRATION,[1],38 G/DL
same,MEAN CORPUSCULAR VOLUME,[1],63.17 fL
same,MONOCYTE,[1],1.67%
same,NEUTROPHIL,[1],6%
same,NUCLEATED RED BLOOD CELLS,[1],0 /100WBC
same,PLATELET COUNT,[1],1370 x10E3/uL
same,ALANINE AMINOTRANSFERASE,[1],44 u/L
same,ALBUMIN,[1],4.63 G/DL
same,ALKALINE PHOSPHATASE,[1],333.33 u/L
same,ASPARTATE AMINOTRANSFERASE,[1],101.67 u/L
same,BLOOD UREA NITROGEN,[1],18.33 mg/dL
same,CARBON DIOXIDE,[1],21.33 mmol/L
same,CHLORIDE,[1],96 MEQ/L
same,CHOLESTEROL,[1],92.67 mg/dL
same,CREATINE PHOSPHOKINASE,[1],602 u/L
same,CREATININE,[1],0.2 mg/dL
same,GLUCOSE,[1],137 mg/dL
same,LACTATE DEHYDROGENASE,[1],701 u/L
same,LIPASE,[1],10 u/L
same,PHOSPHORUS,[1],12.9 mg/dL
same,POTASSIUM,[1],6.82 MEQ/L
same,SODIUM,[1],140.17 MEQ/L
same,TOTAL BILIRUBIN,[1],0.17 mg/dL
same,TOTAL PROTEIN,[1],6.4 G/DL
same,URIC ACID,[1],1.77 mg/dL
same,ABSOLUTE BASOPHIL,[2],0 CELLS/uL
same,ABSOLUTE EOSINOPHIL,[2],80 CELLS/uL
same,ABSOLUTE LYMPHOCYTE,[2],13140 CELLS/uL
same,ABSOLUTE MONOCYTE,[2],187.67 CELLS/uL
same,ABSOLUTE SEGMENTED NEUTROPHIL,[2],1059 CELLS/uL
same,BASOPHIL,[2],0%
same,EOSINOPHIL,[2],0.67%
same,ERYTHROCYTE COUNT,[2],5.43 x10E6/uL
same,HEMATOCRIT,[2],34.63%
same,HEMOGLOBIN,[2],13.57 G/DL
same,LEUKOCYTE COUNT,[2],14.47 x10E3/uL
same,LYMPHOCYTE,[2],91%
same,MEAN CORPUSCULAR HEMOGLOBIN,[2],25 pg
same,MEAN CORPUSCULAR HEMOGLOBIN CONCENTRATION,[2],39.17 G/DL
same,MEAN CORPUSCULAR VOLUME,[2],63.83 fL
same,MONOCYTE,[2],1.33%
same,NEUTROPHIL,[2],7%
same,NUCLEATED RED BLOOD CELLS,[2],0 /100WBC
same,PLATELET COUNT,[2],1246.67 x10E3/uL
same,ALANINE AMINOTRANSFERASE,[2],45.67 u/L
same,ALBUMIN,[2],4.03 G/DL
same,ALKALINE PHOSPHATASE,[2],333 u/L
same,ASPARTATE AMINOTRANSFERASE,[2],70.33 u/L
same,BLOOD UREA NITROGEN,[2],14 mg/dL
same,CARBON DIOXIDE,[2],27.33 mmol/L
same,CHLORIDE,[2],101 MEQ/L
same,CHOLESTEROL,[2],71.33 mg/dL
same,CREATINE PHOSPHOKINASE,[2],209.67 u/L
same,CREATININE,[2],0.12 mg/dL
same,GLUCOSE,[2],150 mg/dL
same,LACTATE DEHYDROGENASE,[2],187.33 u/L
same,LIPASE,[2],8.67 u/L
same,PHOSPHORUS,[2],11 mg/dL
same,POTASSIUM,[2],6.62 MEQ/L
same,SODIUM,[2],144.57 MEQ/L
same,TOTAL BILIRUBIN,[2],0.23 mg/dL
same,TOTAL PROTEIN,[2],5.9 G/DL
same,URIC ACID,[2],1.23 mg/dL
same,ABSOLUTE BASOPHIL,[3],0 CELLS/uL
same,ABSOLUTE EOSINOPHIL,[3],0 CELLS/uL
same,ABSOLUTE LYMPHOCYTE,[3],11731.33 CELLS/uL
same,ABSOLUTE MONOCYTE,[3],603.33 CELLS/uL
same,ABSOLUTE SEGMENTED NEUTROPHIL,[3],4732 CELLS/uL
same,BASOPHIL,[3],0%
same,EOSINOPHIL,[3],0%
same,ERYTHROCYTE COUNT,[3],4.99 x10E6/uL
same,HEMATOCRIT,[3],31.07%
same,HEMOGLOBIN,[3],12.4 G/DL
same,LEUKOCYTE COUNT,[3],17.07 x10E3/uL
same,LYMPHOCYTE,[3],69.67%
same,MEAN CORPUSCULAR HEMOGLOBIN,[3],24.97 pg
same,MEAN CORPUSCULAR HEMOGLOBIN CONCENTRATION,[3],39.93 G/DL
same,MEAN CORPUSCULAR VOLUME,[3],62.43 fL
same,MONOCYTE,[3],3.67%
same,NEUTROPHIL,[3],26.67%
same,NUCLEATED RED BLOOD CELLS,[3],0 /100WBC
same,PLATELET COUNT,[3],1249.67 x10E3/uL
same,ALANINE AMINOTRANSFERASE,[3],40.33 u/L
same,ALBUMIN,[3],3.03 G/DL
same,ALKALINE PHOSPHATASE,[3],327 u/L
same,ASPARTATE AMINOTRANSFERASE,[3],65.67 u/L
same,BLOOD UREA NITROGEN,[3],12.33 mg/dL
same,CARBON DIOXIDE,[3],22.33 mmol/L
same,CHLORIDE,[3],98.67 MEQ/L
same,CHOLESTEROL,[3],62.67 mg/dL
same,CREATINE PHOSPHOKINASE,[3],173 u/L
same,CREATININE,[3],0.17 mg/dL
same,GLUCOSE,[3],131 mg/dL
same,LACTATE DEHYDROGENASE,[3],217 u/L
same,LIPASE,[3],9 u/L
same,PHOSPHORUS,[3],12.47 mg/dL
same,POTASSIUM,[3],6.61 MEQ/L
same,SODIUM,[3],143.17 MEQ/L
same,TOTAL BILIRUBIN,[3],0.1 mg/dL
same,TOTAL PROTEIN,[3],6.03 G/DL
same,URIC ACID,[3],1.7 mg/dL
same,ABSOLUTE BASOPHIL,[4],0 CELLS/uL
same,ABSOLUTE EOSINOPHIL,[4],0 CELLS/uL
same,ABSOLUTE LYMPHOCYTE,[4],17693 CELLS/uL
same,ABSOLUTE MONOCYTE,[4],655 CELLS/uL
same,ABSOLUTE SEGMENTED NEUTROPHIL,[4],5318.67 CELLS/uL
same,BASOPHIL,[4],0%
same,EOSINOPHIL,[4],0%
same,ERYTHROCYTE COUNT,[4],5.09 x10E6/uL
same,HEMATOCRIT,[4],30.4%
same,HEMOGLOBIN,[4],12.37 G/DL
same,LEUKOCYTE COUNT,[4],23.67 x10E3/uL
same,LYMPHOCYTE,[4],76.67%
same,MEAN CORPUSCULAR HEMOGLOBIN,[4],24.3 pg
same,MEAN CORPUSCULAR HEMOGLOBIN CONCENTRATION,[4],40.7 G/DL
same,MEAN CORPUSCULAR VOLUME,[4],59.73 fL
same,MONOCYTE,[4],3%
same,NEUTROPHIL,[4],20.33%
same,NUCLEATED RED BLOOD CELLS,[4],0.33 /100WBC
same,PLATELET COUNT,[4],1767.33 x10E3/uL
same,ALANINE AMINOTRANSFERASE,[4],33.33 u/L
same,ALBUMIN,[4],2.7 G/DL
same,ALKALINE PHOSPHATASE,[4],254.33 u/L
same,ASPARTATE AMINOTRANSFERASE,[4],66.33 u/L
same,BLOOD UREA NITROGEN,[4],16.67 mg/dL
same,CARBON DIOXIDE,[4],24.33 mmol/L
same,CHLORIDE,[4],103.33 MEQ/L
same,CHOLESTEROL,[4],55.67 mg/dL
same,CREATINE PHOSPHOKINASE,[4],192.33 u/L
same,CREATININE,[4],0.13 mg/dL
same,GLUCOSE,[4],142.33 mg/dL
same,LACTATE DEHYDROGENASE,[4],225.33 u/L
same,LIPASE,[4],7.67 u/L
same,PHOSPHORUS,[4],11.27 mg/dL
same,POTASSIUM,[4],6.81 MEQ/L
same,SODIUM,[4],144.57 MEQ/L
same,TOTAL BILIRUBIN,[4],0.1 mg/dL
same,TOTAL PROTEIN,[4],5.87 G/DL
same,URIC ACID,[4],1.87 mg/dL
